From ChEMBL document CHEMBL5346930, “Discovery of novel N-benzylarylamide-dithiocarbamate based derivatives as dual inhibitors of tubulin polymerization and LSD1 that inhibit gastric cancers” (Eur J Med Chem, 2023) come the findings set out here.

Test [1] relates to MGC-803. The test can be described thus: cells. The note with it: Homo sapiens, MGC-803, 48 h.
Description: Antiproliferative activity against human MGC-803 cells assessed as inhibition of cell growth incubated for 48 hrs by MTT assay
Test [2] has as its system HCT-116. The test can be described thus: cells. The note with it: Homo sapiens, HCT-116, 48 h.
Description: Antiproliferative activity against human HCT-116 cells assessed as inhibition of cell growth incubated for 48 hrs by MTT assay
Test [3] has as its system KYSE-450. Briefly: cells. The note with it: Homo sapiens, KYSE-450, 48 h.
Description: Antiproliferative activity against human KYSE-450 cells assessed as inhibition of cell growth incubated for 48 hrs by MTT assay
In test [4] the test system is MGC-803. The test can be described thus: Antitumor activity against human MGC-803 cells xenografted in BALB/c nude mouse assessed as tumor growth inhibition at 25 mg/kg/day, ip administered every day for 21 days. The note with it: time 21.0 day. The format is functional, organism-based. In general terms: Xenograft models place foreign cells or tissue in a host animal.

For test [5], the system named is MGC-803. Briefly: Antitumor activity against human MGC-803 cells xenografted in BALB/c nude mouse assessed as reduction in tumor weight at 25 mg/kg/day, ip administered every day for 21 days. The format is functional, organism-based. The following applies: time 21.0 day.
Test [6] has as its system MGC-803. Briefly: Antitumor activity against human MGC-803 cells xenografted in BALB/c nude mouse assessed as reduction in tumor volume at 25 mg/kg/day, ip administered every day for 21 days. The format is functional, organism-based. The following applies: time 21.0 day.
The target of test [7] is Lysine-specific histone demethylase 1A (Homo sapiens, UniProt O60341). The test can be described thus: Inhibition of recombinant LSD1 (unknown origin) using H3K4me2 peptide as substrate preincubated for 10 mins followed by substrate addition and measured after 30 mins by amplex red based fluorescence microplate reader analysis.

What is called IC50 is the concentration that gives 50% inhibition.

The source made the active and inactive calls. The calls are words filed in the database; no cut-off is given here.

For `COc1ccc(CN(C(=O)CSC(=S)N2CCN(S(C)(=O)=O)CC2)c2cc(OC)c(OC)c(OC)c2)cc1O`, the IC50 came to 0.23 µM in test [1], 0.5 µM in test [2] and 0.43 µM in test [3].

Regarding `COc1ccc(CN(C(=O)CSC(=S)N2CCN(c3ccc(C#N)cc3)CC2)c2cc(OC)c(OC)c(OC)c2)cc1O`, the results for the IC50 in test [1], in test [2] and in test [3] were 0.026 µM, 0.079 µM and 0.037 µM, respectively.

For `COc1ccc(CN(C(=O)CSC(=S)N2CCC(OC)CC2)c2cc(OC)c(OC)c(OC)c2)cc1O`, the results for the IC50 in test [1], in test [2] and in test [3] were 1.26 µM, 0.6 µM and 0.89 µM, respectively.

`NC1CCC(N[C@@H]2C[C@H]2c2ccccc2)CC1` (stereo not given in full): the IC50 in test [1], in test [2] and in test [3] was over 20 µM in each case.

Regarding `COc1ccc(N2CCN(C(=S)SCC(=O)N(Cc3ccc(OC)c(O)c3)c3cc(OC)c(OC)c(OC)c3)CC2)cc1`, the values for the IC50 in test [1], in test [2] and in test [3] were 0.045 µM, 0.059 µM and 0.067 µM, respectively.

With `COc1ccc(CN(C(=O)CSC(=S)N2CCN(CCO)CC2)c2cc(OC)c(OC)c(OC)c2)cc1O`, the IC50 is 0.54 µM in test [1], 0.52 µM in test [2] and 0.49 µM in test [3].

As to `Cc1ccc(Cn2cc(CSC(=S)N3CCN(C(=O)OC(C)(C)C)CC3)nn2)cc1`, the IC50 in test [1] is 2.81 µM; in test [2], 12.8 µM; in test [3], over 20 µM.

As to `CCOC(=O)C1CCN(C(=S)SCC(=O)N(Cc2ccc(OC)c(O)c2)c2cc(OC)c(OC)c(OC)c2)CC1`, the IC50 came out at 0.7 µM in test [1], 0.69 µM in test [2] and 0.67 µM in test [3].

Take `COc1ccc(CN(C(=O)CSC(=S)N2CCN(C(C)=O)CC2)c2cc(OC)c(OC)c(OC)c2)cc1O`: the IC50 was determined as 0.46 µM in test [1] and 0.34 µM in test [3].

As for `COc1ccc(CN(C(=O)CSC(=S)N2CCC(O)CC2)c2cc(OC)c(OC)c(OC)c2)cc1O`, the IC50 in test [1] came out at 0.56 µM; in test [2], 0.8 µM; in test [3], 0.46 µM.

As to `COc1ccc(CN(C(=O)CSC(=S)N2CCN(c3ccc([N+](=O)[O-])cc3)CC2)c2cc(OC)c(OC)c(OC)c2)cc1O`, the results for the IC50 in test [1], in test [2] and in test [3] were 0.054 µM, 0.067 µM and 0.072 µM, respectively.

On to `COc1ccc(CN(C(=O)CSC(=S)N2CCN(c3ccc(Br)cc3)CC2)c2cc(OC)c(OC)c(OC)c2)cc1O`, for which the IC50 in test [1] was found to be 0.027 µM; in test [2], 0.051 µM; in test [3], 0.036 µM.

In the case of `COc1ccc(CN(C(=O)CSC(=S)N2CCN(C3CC3)CC2)c2cc(OC)c(OC)c(OC)c2)cc1O`, the IC50 came out at 0.12 µM in test [1], 0.48 µM in test [2] and 0.21 µM in test [3].

Turning to `COc1ccc(CN(C(=O)CSC(=S)N2CCC(C(=O)OC(C)(C)C)CC2)c2cc(OC)c(OC)c(OC)c2)cc1O`, the IC50 in test [1] is 0.18 µM; in test [2], 0.11 µM; in test [3], 0.2 µM.

Consider `COc1ccc(CN(C(=O)CSC(=S)N2CCCC(C)C2)c2cc(OC)c(OC)c(OC)c2)cc1O` (stereo not given), for which the figures for the IC50 in test [1], in test [2] and in test [3] were 0.48 µM, 0.64 µM and 0.53 µM, respectively.

In the case of `COc1ccc(CN(C(=O)CSC(=S)N2CCN(c3ccc(F)cc3)CC2)c2cc(OC)c(OC)c(OC)c2)cc1O`, the values for the IC50 in test [1], in test [2] and in test [3] were 0.039 µM, 0.046 µM and 0.067 µM, respectively.

Consider `COc1ccc(CN(C(=O)CSC(=S)N2CCN(c3ccccc3OC)CC2)c2cc(OC)c(OC)c(OC)c2)cc1O`, for which the IC50 in test [1] was 0.12 µM; in test [2], 0.24 µM; in test [3] it was 0.32 µM.

For `COc1ccc(CN(C(=O)CSC(=S)N2CCC(c3ccccc3)CC2)c2cc(OC)c(OC)c(OC)c2)cc1O`, the IC50 in test [1] was 0.34 µM; in test [2], 0.17 µM; in test [3] it was 0.38 µM.

For the compound `COc1ccc(CN(C(=O)CSC(=S)N2CCN(c3ccccc3)CC2)c2cc(OC)c(OC)c(OC)c2)cc1O`, the results for the IC50 in test [1], in test [2] and in test [3] were 0.062 µM, 0.078 µM and 0.052 µM, respectively.

With `COc1ccc(CN(C(=O)CSC(=S)N2CCN(c3ccc(Cl)cc3)CC2)c2cc(OC)c(OC)c(OC)c2)cc1O`, the values for the IC50 in test [1], in test [2] and in test [3] were 0.038 µM, 0.059 µM and 0.045 µM, respectively.

In the case of `CCCCN1CCN(C(=S)SCC(=O)N(Cc2ccc(OC)c(O)c2)c2cc(OC)c(OC)c(OC)c2)CC1`, the 50% inhibitory concentration (IC50) in test [1] turned out to be 0.03 µM; in test [2], 0.097 µM; in test [3], 0.073 µM.

`CCOC(=O)N1CCN(C(=S)SCC(=O)N(Cc2ccc(OC)c(O)c2)c2cc(OC)c(OC)c(OC)c2)CC1`: the IC50 in test [1] stood at 0.079 µM; in test [2], 0.089 µM; in test [3], 0.069 µM.

Consider `COC(=O)C1CCN(C(=S)SCC(=O)N(Cc2ccc(OC)c(O)c2)c2cc(OC)c(OC)c(OC)c2)CC1`, for which the IC50 was 0.31 µM in test [1], 0.23 µM in test [2] and 0.28 µM in test [3].

`COc1ccc(CN(C(=O)CSC(=S)N2CCN(C=O)CC2)c2cc(OC)c(OC)c(OC)c2)cc1O`: the IC50 in test [1] was 0.19 µM; in test [2] it was 0.12 µM; in test [3] it was 0.21 µM.

Consider `COc1cc2c(c(OC)c1OC)-c1ccc(OC)c(=O)cc1[C@@H](NC(C)=O)CC2` [COLCHICINE], for which the half-inhibitory concentration (IC50) was 0.056 µM in test [1], 0.078 µM in test [2] and 0.07 µM in test [3].

For the compound `COc1ccc(/C=C\c2cc(OC)c(OC)c(OC)c2)cc1O`, the result in test [4], in test [5] and in test [6] was Active.

For the compound `COc1ccc(CN(C(=O)CSC(=S)N2CCN(C(C)C)CC2)c2cc(OC)c(OC)c(OC)c2)cc1O`, the values for the IC50 in test [1], in test [2] and in test [3] were 0.1 µM, 0.16 µM and 0.17 µM, respectively.

Consider `COc1ccc(CN(C(=O)CSC(=S)N2CCN(C(=O)OC(C)(C)C)CC2)c2cc(OC)c(OC)c(OC)c2)cc1O`, for which the IC50 turned out to be 2.67 µM in test [7], 0.084 µM in test [1], 0.22 µM in test [2] and 0.078 µM in test [3].

Turning to `COc1ccc(CN(C(=O)CSC(=S)N2CCN(C(=O)C3CC3)CC2)c2cc(OC)c(OC)c(OC)c2)cc1O`, the IC50 came out at 0.12 µM in test [1], 0.1 µM in test [2] and 0.2 µM in test [3].

`COc1ccc(CN(C(=O)CSC(=S)N2CCN(C(C)(C)C)CC2)c2cc(OC)c(OC)c(OC)c2)cc1O`: the figures for the IC50 in test [1], in test [2] and in test [3] were 0.43 µM, 0.62 µM and 0.7 µM, respectively.

For `C/C=C/C(=O)N(Cc1ccc(OC)c(O)c1)c1cc(OC)c(OC)c(OC)c1`, the IC50 amounted to 0.028 µM in test [1], 0.054 µM in test [2] and 0.062 µM in test [3].

As to `COc1ccc(CN(C(=O)CSC(=S)N2CCN(C)CC2)c2cc(OC)c(OC)c(OC)c2)cc1O`, the IC50 in test [1] came to 0.27 µM; in test [2], 0.82 µM; in test [3] it was 0.75 µM.

For the compound `CCN1CCN(C(=S)SCC(=O)N(Cc2ccc(OC)c(O)c2)c2cc(OC)c(OC)c(OC)c2)CC1`, the IC50 was 0.25 µM in test [1] and 0.31 µM in test [3].

For the compound `COc1ccc(CN(C(=O)CSC(=S)N2CCN(c3ccc(O)cc3)CC2)c2cc(OC)c(OC)c(OC)c2)cc1O`, the concentration for half-maximal inhibition (IC50) in test [1] came to 0.078 µM; in test [2] it was 0.1 µM; in test [3], 0.086 µM.

Consider `COc1ccc(CN(C(=O)CSC(=S)N2CCC(C)CC2)c2cc(OC)c(OC)c(OC)c2)cc1O`, for which the IC50 in test [1] amounted to 0.38 µM; in test [2], 0.89 µM; in test [3], 0.86 µM.

With `COC(=O)N1CCN(C(=S)SCC(=O)N(Cc2ccc(OC)c(O)c2)c2cc(OC)c(OC)c(OC)c2)CC1`, the IC50 is 0.14 µM in test [1], 0.16 µM in test [2] and 0.16 µM in test [3].

`COc1cccc(N2CCN(C(=S)SCC(=O)N(Cc3ccc(OC)c(O)c3)c3cc(OC)c(OC)c(OC)c3)CC2)c1`: the IC50 in test [1] turned out to be 0.075 µM; in test [2] it was 0.15 µM; in test [3] it was 0.059 µM.
